Test results: US20240166598A1, “COMPOUNDS, COMPOSITIONS, AND METHODS OF USING THE SAME” (priority 2021, published 2024)

Columns and labels:
[1] = system: SARS-CoV-2, Isolate USA-WA1/2020; test: microbe, parasite or virus in culture; format: cell-based; details: for EC50: Severe acute respiratory syndrome coronavirus 2, Vero C1008, read-out: EC50 against infectious SARS-CoV-2 (plaque formation)
Vero E6 cells = details: African green monkey
SARS CoV-2 PLpro = SARS CoV-2 PLpro (Severe acute respiratory syndrome coronavirus 2 (2019-nCoV) (SARS-CoV-2), UniProt P0DTD1); format: biochemical; details: 20 μM
human USP7 = human USP7 (Homo sapiens (Human), UniProt Q93009); test: USP7 selectivity counter-assay (Ub-AMC); format: biochemical; details: catalytic domain of human USP7; up to 30 μM for CPI-169
Method: (§1) Assay conditions were similar to the PLpro primary assay, with the following substitutions: USP7 assays contained 4 nM USP7 and 0.5 uM Ub-AMC (Boston Biochem); USP14 assays contained 1.7 uM USP14, 4 uM Ub-AMC, and the addition of 5% glycerol to Buffer B. PLpro activity with ISG15-AMC and Ub-AMC were assayed in a manner similar to the PLpro primary assay. PLpro and substrate concentrations were modified as follows: 80 nM PLpro was assayed with 0.5 uM Ub-AMC, and 4 nM PLpro was assayed with 0.5 uM ISG15-AMC.
as §1, with “to Buffer B.PLpro activity with” for “to Buffer B. PLpro activity with”, “with 0.5 μM ISG15-AMC.” for “with 0.5 uM ISG15-AMC.”

in vitro [2] = details: human, Caco-2
SARS-CoV-2 USA/WA1/2020 = test: microbe, parasite or virus in culture; format: cell-based; details: for IC50: Severe acute respiratory syndrome coronavirus 2, 48 h, read-out: IC50 (viral RNA by RT-qPCR)
A549-hACE2 cells = test: Cytotoxicity in A549-hACE2 cells (CellTiter-Glo); details: assay conditions
[3] = human
in vitro [4] = details: human, microsomes

human USP7, sequence (Q93009 214-521 limits assumed): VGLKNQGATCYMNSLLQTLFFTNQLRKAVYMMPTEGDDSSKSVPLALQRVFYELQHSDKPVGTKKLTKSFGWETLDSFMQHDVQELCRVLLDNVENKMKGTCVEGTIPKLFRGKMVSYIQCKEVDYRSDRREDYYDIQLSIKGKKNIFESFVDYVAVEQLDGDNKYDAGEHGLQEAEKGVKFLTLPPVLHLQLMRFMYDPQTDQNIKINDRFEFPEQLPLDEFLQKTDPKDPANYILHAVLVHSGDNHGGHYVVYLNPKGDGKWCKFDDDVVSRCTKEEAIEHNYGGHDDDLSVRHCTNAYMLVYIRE

Question: Which results are given for `Cc1ccc(NC2CNC2)cc1C(=O)N[C@H](C)c1cccc(-c2ccc(CN[C@H]3CC[C@@H](O)C3)s2)c1` (single isomer, unassigned) [XR8-89]?
Answer: antiviral activity, in words [1]: superior antiviral potency to GRL017; concentration at which no toxicity was observed (Vero E6 cells): < 50 µM

Question: Which “result in the PLpro screen, in words” value (SARS CoV-2 PLpro) does the source give for `CC(C)c1cc(C(C)C)c(CC(=O)NS(=O)(=O)Oc2c(C(C)C)cccc2C(C)C)c(C(C)C)c1` [Avasimibe] here?
Answer: weak PLpro inhibitors

Question: Which “inhibition of USP7-catalyzed Ub-AMC hydrolysis” value (human USP7) does the source give for `CCS(=O)(=O)N1CCC([C@@H](C)n2c(C)c(C(=O)NCc3c(OC)cc(C)[nH]c3=O)c3ccccc32)CC1` [CPI-169] here?
Answer: not able to inhibit USP7 up to a concentration of 30 μM

Question: For `Cc1ccc(N)cc1C(=O)N[C@H](C)c1cccc2ccccc12` [GRL0617, reference compound], which EC50 [1] is on record?
Answer: 21700 ± 1600 nM

Question: And the Papp A→B (in vitro [2])?
Answer: 12.4 ×10⁻⁶ cm/s

Question: What about the Papp B→A (in vitro [2]) of the same molecule?
Answer: 12.9 ×10⁻⁶ cm/s

Question: What about the “inhibition of USP7-catalyzed Ub-AMC hydrolysis” value (human USP7) of the same molecule?
Answer: did not inhibit

Question: And the IC50 (SARS-CoV-2 USA/WA1/2020)?
Answer: > 20000 nM

Question: With `Cc1ccc(NC2CNC2)cc1C(=O)N[C@H](C)c1cccc(-c2ccc(CNC3CCCC3)s2)c1` [XR8-23] as the molecule, how does the “concentration at which cytotoxicity was not observed” value (A549-hACE2 cells) read?
Answer: < 10 µM

Question: What about the “In vitro CIint” value [3] of the same molecule?
Answer: 5.89 μL/min/mg protein

Question: And the “Scale-up CIint” value [3]?
Answer: 7.38 mL/min/kg

Question: And the Papp A→B (in vitro [2])?
Answer: 0.16 ×10⁻⁶ cm/s

Question: What about the Papp B→A (in vitro [2]) of the same molecule?
Answer: 1.56 ×10⁻⁶ cm/s

Question: What about the half-life (in vitro [4]) of the same molecule?
Answer: 3.92 h

Question: And the “concentration at which no toxicity was observed” value (Vero E6 cells)?
Answer: < 50 µM

Question: Which results are given for `Cc1ccc(NC2CNC2)cc1C(=O)N[C@H](C)c1cccc(-c2ccc(CN3CCCC3)s2)c1` [XR8-24]?
Answer: concentration at which cytotoxicity was not observed (A549-hACE2 cells): < 50 µM; In vitro CIint [3]: 9.60 μL/min/mg protein; Scale-up CIint [3]: 12.04 mL/min/kg; EC50 [1]: 2500 ± 1900 nM; Papp A→B (in vitro [2]): 0.14 ×10⁻⁶ cm/s; Papp B→A (in vitro [2]): 3.06 ×10⁻⁶ cm/s; half-life (in vitro [4]): 2.41 h; concentration at which no toxicity was observed (Vero E6 cells): < 50 µM; effect of treatment on viral RNA versus remdesivir (10 μM) (SARS-CoV-2 USA/WA1/2020; 20 μM): not significantly different from that of remdesivir; IC50 (SARS-CoV-2 USA/WA1/2020): 1200 ± 200 nM

Question: Which “result in the PLpro screen, in words” value (SARS CoV-2 PLpro) does the source give for `CCOc1nc2cccc(C(=O)O)c2n1Cc1ccc(-c2ccccc2-c2nnn[nH]2)cc1` [candesartan] here?
Answer: weak PLpro inhibitors
